In article PMC10909772 (Saudi Pharmaceutical Journal : SPJ, 2024):
Where two headings read alike, the source gives them in different places. Values belong to the compound of their own block, whether it stands above or below them.

How the values were obtained:
xanthine oxidase [1] = molecular target: T1, xanthine oxidase (Bos taurus, UniProt P80457); assay: Kinetics of xanthine oxidase inhibition; assay type: biochemical; details: Lineweaver-Burk double reciprocal plots, xanthine as substrate
xanthine oxidase [2] = molecular target: T1, xanthine oxidase; assay: Xanthine oxidase inhibitory assay; assay type: biochemical
xanthine oxidase [3] = molecular target: T1, xanthine oxidase; details: cited from earlier work; for inhibition of the xanthine oxidase enzyme (in words): ref Mostafa et al., 2007

T1 sequence (P80457 whole entry): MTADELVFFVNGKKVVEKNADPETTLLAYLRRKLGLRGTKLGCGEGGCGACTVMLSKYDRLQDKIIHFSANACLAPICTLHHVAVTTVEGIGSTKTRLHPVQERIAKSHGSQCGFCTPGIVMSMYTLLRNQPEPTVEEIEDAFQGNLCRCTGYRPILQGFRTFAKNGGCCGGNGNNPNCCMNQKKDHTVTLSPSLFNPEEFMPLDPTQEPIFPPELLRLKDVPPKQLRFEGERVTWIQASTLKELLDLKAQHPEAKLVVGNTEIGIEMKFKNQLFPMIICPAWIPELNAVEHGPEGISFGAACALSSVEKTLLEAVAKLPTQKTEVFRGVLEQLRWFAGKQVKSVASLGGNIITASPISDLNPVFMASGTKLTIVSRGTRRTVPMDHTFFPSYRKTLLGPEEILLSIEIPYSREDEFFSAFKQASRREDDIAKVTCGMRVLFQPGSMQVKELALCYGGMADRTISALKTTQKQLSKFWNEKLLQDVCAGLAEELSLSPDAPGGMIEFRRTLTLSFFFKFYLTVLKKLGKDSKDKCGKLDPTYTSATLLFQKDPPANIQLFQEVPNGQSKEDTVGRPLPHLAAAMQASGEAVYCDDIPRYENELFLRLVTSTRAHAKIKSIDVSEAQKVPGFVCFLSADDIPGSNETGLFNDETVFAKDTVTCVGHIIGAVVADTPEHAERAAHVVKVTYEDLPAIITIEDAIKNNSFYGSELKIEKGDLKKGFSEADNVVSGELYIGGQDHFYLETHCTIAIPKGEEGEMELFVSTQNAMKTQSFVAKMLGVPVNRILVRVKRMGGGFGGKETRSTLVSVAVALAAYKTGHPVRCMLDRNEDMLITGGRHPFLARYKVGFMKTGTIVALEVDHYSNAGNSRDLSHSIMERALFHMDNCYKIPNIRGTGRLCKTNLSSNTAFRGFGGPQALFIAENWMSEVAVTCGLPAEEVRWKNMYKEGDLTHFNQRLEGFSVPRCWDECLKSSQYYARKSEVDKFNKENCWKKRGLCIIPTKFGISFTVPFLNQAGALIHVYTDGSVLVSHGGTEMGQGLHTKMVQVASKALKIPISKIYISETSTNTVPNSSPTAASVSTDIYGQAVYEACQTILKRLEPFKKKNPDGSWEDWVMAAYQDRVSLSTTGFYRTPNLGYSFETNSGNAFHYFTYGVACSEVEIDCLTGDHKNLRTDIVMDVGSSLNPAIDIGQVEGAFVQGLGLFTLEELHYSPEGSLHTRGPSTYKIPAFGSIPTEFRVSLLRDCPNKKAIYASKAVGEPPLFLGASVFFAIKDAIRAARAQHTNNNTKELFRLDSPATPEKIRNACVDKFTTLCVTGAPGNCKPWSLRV

- type of inhibition (xanthine oxidase [1]): competitive
Structure (SMILES): Oc1ncnc2[nH]ncc12 [Allopurinol]

- IC50 (xanthine oxidase [2]): 26.3 ± 3.36 µM
- type of inhibition (xanthine oxidase [1]): competitive
Structure (SMILES): COc1ccc(/C=C/C(=O)O)cc1 [Compound 3, trans-4-methoxycinnamic acid]

- IC50 (xanthine oxidase [2]): 23.3 ± 1.88 µM
- type of inhibition (xanthine oxidase [1]): competitive
Structure (SMILES): O=C(O)/C=C/c1ccc(O)cc1 [Compound 5, p-coumaric acid]

Structure (SMILES): COc1ccc(CCO[C@@H]2O[C@H](CO[C@@H]3OC[C@H](O)[C@H](O)[C@H]3O)[C@@H](OC(=O)/C=C/c3ccc(O)c(OC)c3)[C@H](O[C@@H]3O[C@@H](C)[C@H](O)[C@@H](O)[C@H]3O)[C@H]2O)cc1O [angoroside C]
- inhibition of the xanthine oxidase enzyme (in words) (xanthine oxidase [3]): moderate inhibitors

Structure (SMILES): O=c1cc(-c2ccc(O)cc2)oc2cc(O)cc(O)c12 [apigenin]
- type of inhibition (xanthine oxidase [3]; ref Lin et al., 2002): competitive

Structure (SMILES): O=C(O)/C=C/c1ccc(O)c(O)c1 [caffeic acid]
- IC50 (xanthine oxidase [3]; ref Nguyen et al., 2006): 85.4 µM
- inhibition type (xanthine oxidase [3]; ref Nguyen et al., 2006): competitive

Structure (SMILES): O=c1c(-c2ccc(O)cc2)coc2cc(O)cc(O)c12 [genistein]
- type of inhibition (xanthine oxidase [3]; ref Lin et al., 2002): competitive

Structure (SMILES): COc1ccc(CCO[C@@H]2O[C@H](CO)[C@@H](OC(=O)/C=C/c3ccc(O)c(OC)c3)[C@H](O[C@@H]3O[C@@H](C)[C@H](O)[C@@H](O)[C@H]3O[C@@H]3O[C@H](CO)[C@@H](O)[C@H](O)[C@H]3O)[C@H]2O)cc1O [incanoside D]
- inhibition of the xanthine oxidase enzyme (in words) (xanthine oxidase [3]): moderate inhibitors

Structure (SMILES): O=c1cc(-c2ccc(O)c(O)c2)oc2cc(O)cc(O)c12 [luteolin]
- Ki (xanthine oxidase [3]; read-out: inhibition constant (Ki), ref Yan et al., 2013): 2.38 µM
- IC50 (xanthine oxidase [3]; ref Yan et al., 2013): 4.79 µM
- type of inhibition (xanthine oxidase [3]; ref Yan et al., 2013): competitive

Structure (SMILES): COC(=O)/C=C/c1ccc(O)c(O)c1 [methyl caffeate]
- IC50 (xanthine oxidase [3]; ref Nguyen et al., 2006): 12.3 µM
- inhibition type (xanthine oxidase [3]; ref Nguyen et al., 2006): competitive

Structure (SMILES): O=c1c(O)c(-c2cc(O)c(O)c(O)c2)oc2cc(O)cc(O)c12 [myricetin]
- type of inhibition (xanthine oxidase [3]; ref Lin et al., 2002): competitive

Structure (SMILES): O=c1c(O)c(-c2ccc(O)c(O)c2)oc2cc(O)cc(O)c12 [quercetin]
- type of inhibition (xanthine oxidase [3]; ref Lin et al., 2002): competitive
